{"source": "patent EP2954896A1", "about": "“Small molecule inhibitors of the E3 Ligase Skp2 in depression and other diseases” (Max-Planck-Gesellschaft zur Förderung der Wissenschaften …, priority 2014, dated 2015)", "key": {"[1]": {"tested_on": "autophagy markers", "assay": "Autophagy markers in protein extracts of hippocampus and prefrontal cortex after acute antidepressant injection", "format": "in vivo, mice", "settings": "10 mgkg-1", "protocol": "Western blot analysis was performed on eluates from ColPs or with protein extracts from cells or tissue. Protein extracts were obtained by lysing cells or tissue (prelysed as described in the paragraph before) in 62.5 mM Tris, 2% SDS and 10% sucrose, supplemented with protease (Sigma, P2714) and phosphatase (Roche, 04906837001) inhibitor cocktail. Samples were sonicated and heated at 95 °C for 5 min. Proteins were separated by SDS-PAGE and electro-transferred onto nitrocellulose membranes. Blots were placed in Tris-buffered saline, supplemented with 0.05% Tween (Sigma, P2287) and 5% non-fat milk for 1 h at room temperature and then incubated with primary antibody (diluted in TBS/0.05% Tween) overnight at 4 °C. The following primary antibodies were used: Beclin1 (1:1000, Cell Signaling, #3495), Atg12 (1:1000, Cell Signaling #2010), LC3B-I/II (1:1000, Cell Signaling, #2775), FLAG (1:7000, Rockland, 600-401-383), FKBP51 (1:1000, Bethyl, A301-430A), Akt (1:1000, Cell Signaling, #4691), pAkt (1:1000, Ser473, T308, 1:1000, Cell Signaling, #4058, #9275), Actin (1:5000, Santa Cruz Biotechnologies, sc-1616), Skp2, myc (Addgene, 19947), GFP (santa cruz biotechnologies, sc-8334), p27 (cell signaling technologies, 3686), pULK,(S757, cell signaling technologies, 6888) APP-CTF (sigma-aldrich, A8717), DNMT1 (1:1000, Imgenex, IMG-261A), phospho-DNMT1 (S154), (1:1000, Abnova, PAB4924), ptau (S622; Santa Cruz Biotechnologies, #sc-16938).\nSubsequently, blots were washed and probed with the respective horseradish peroxidase- or fluorophore-conjugated secondary antibody for 1 h at room temperature. The immuno-reactive bands were visualized either using ECL detection reagent (Millipore, Billerica, MA, USA, WBKL0500) or directly by excitation of the respective fluorophore. Determination of the band intensities were performed with BioRad, ChemiDoc MP, or X-ray-films.\nThe Fkbp51^-/- mouse line was previously generated (Touma C et al. (2011) Biol. Psychiatry 70: 928-936) and fully backcrossed to C57/BI6. […] Hippocampus and prefrontal cortex were extracted."}, "[2]": {"assay": "Chronic PAR treatment after chronic social defeat stress: behavioral tests (open field, social avoidance, forced swim)", "format": "in vivo", "settings": "FKBP51-deleted versus wild type mice", "excerpt": "After cessation of the stressor, groups were subdivided into vehicle-treated and paroxetine-treated animals, resulting in 8 groups (n = 7-13 per group). The treatment phase lasted for three weeks. The behavioral tests took place during the last week of the paroxetine treatment. The CSDS paradigm lasted for 21 days. Briefly, the experimental mice were introduced into the home cage (45 cm x 25 cm) of a dominant resident mouse and defeated shortly after. When the defeat was achieved, the animals were separated by a wire mesh, preventing physical but allowing sensory contact for 24 h. Each day, stressed animals were defeated by another unfamiliar, dominant resident mouse in order to exclude a repeated encounter throughout the experiment. The daily defeat was performed between 11:00 and 16:00 h; varying starting times reduced the predictability of the stressor and therefore minimized a potential habituation effect. […] Both stress and control animals were handled daily during the stress procedure; body weight for all mice was assessed at the beginning of the experiment, after the cessation of the stress period, and on the day of killing. […] All tests were analyzed using an automated videotracking system (Anymaze 4.20, Stoelting, Wood Dale, IL). […] Time spent immobile (floating) and time spent struggling was scored by an experienced observer, blind to treatment or condition of the animals."}, "[3]": {"assay": "Forced swim test after acute antidepressant injection in Fkbp51+/+ and Fkbp51-/- mice", "format": "in vivo", "settings": "acute injection 10 mgkg-1", "protocol": "The Fkbp51^-/- mouse line was previously generated (Touma C et al. (2011) Biol. Psychiatry 70: 928-936) and fully backcrossed to C57/BI6. […] Hippocampus and prefrontal cortex were extracted. […] Male mice (age 10-16 weeks) were injected intraperitoneally with a single dose of either AMI (10 mg kg^-1) or saline vehicle. […] Another subgroup (WT n=5, KO n=5) was sacrificed, and brain tissue and blood was sampled for analysis of drug concentrations. […] The inventors performed an additional forced swim test administering the antidepressant amitriptyline in FKBP51 WT and FKBP51 KO mice (Fig. 1 B)."}, "[4]": {"settings": "Fkbp51+/+ mice, hippocampus and prefrontal cortex"}}, "data": [{"smiles": "Fc1ccc([C@@H]2CCNC[C@H]2COc2ccc3c(c2)OCO3)cc1", "note": "[PAR, paroxetine]", "values": [{"measurement": "level of Atg12", "setting": "[1]; [4]", "result": "increased"}, {"measurement": "level of Beclin1", "setting": "[1]; [4]", "result": "increased"}, {"measurement": "level of Vps34", "setting": "[1]; [4]", "result": "increased"}, {"measurement": "phosphorylation of the kinase Akt (pAktS473)", "setting": "[1]; [4]", "result": "evoked dephosphorylation"}, {"measurement": "protein levels of autophagy markers and pAktS473", "setting": "[1]; Fkbp51-/- mice, either brain region", "result": "no alterations"}, {"measurement": "enhancing struggling and reducing floating, forced swim test", "setting": "[2]", "result": "significantly less effective"}, {"measurement": "time spent struggling, forced swim test", "setting": "[3]; Fkbp51+/+ mice", "result": "increase in the time spent struggling"}, {"measurement": "time floating (immobility), forced swim test", "setting": "[3]; Fkbp51+/+ mice, versus vehicle", "result": "less time floating"}, {"measurement": "effect on time floating (immobility), forced swim test", "setting": "[3]; Fkbp51-/- mice", "result": "significantly less pronounced"}, {"measurement": "effect on time spent struggling, forced swim test", "setting": "[3]; Fkbp51-/- mice", "result": "significantly attenuated"}]}]}
